We go through nine molecules from paper PMC12027992, “New Amidino-Substituted Benzimidazole Derivatives as Human Dipeptidyl Peptidase III Inhibitors: Synthesis, In Vitro Evaluation, QSAR, and Molecular Docking Studies” (International Journal of Molecular Sciences, 2025).

For assay [1], the target named is hDPP III. More on the design: method as in PMID 18163885. Conditions: read-out: inhibition constant (Ki); cited from earlier work.
Assay [2] has as its target T1, human DPP III (Homo sapiens, UniProt Q9NY33).
T1 construct: C-terminally truncated human DPP III was expressed and purified as described previously; His-tag (TEV-cleavable) (C, cleaved yes); made in house; host or cells: E. coli BL21-CodonPlus (DE3)-RIL
T1 sequence (Q9NY33 1-726 limits assumed): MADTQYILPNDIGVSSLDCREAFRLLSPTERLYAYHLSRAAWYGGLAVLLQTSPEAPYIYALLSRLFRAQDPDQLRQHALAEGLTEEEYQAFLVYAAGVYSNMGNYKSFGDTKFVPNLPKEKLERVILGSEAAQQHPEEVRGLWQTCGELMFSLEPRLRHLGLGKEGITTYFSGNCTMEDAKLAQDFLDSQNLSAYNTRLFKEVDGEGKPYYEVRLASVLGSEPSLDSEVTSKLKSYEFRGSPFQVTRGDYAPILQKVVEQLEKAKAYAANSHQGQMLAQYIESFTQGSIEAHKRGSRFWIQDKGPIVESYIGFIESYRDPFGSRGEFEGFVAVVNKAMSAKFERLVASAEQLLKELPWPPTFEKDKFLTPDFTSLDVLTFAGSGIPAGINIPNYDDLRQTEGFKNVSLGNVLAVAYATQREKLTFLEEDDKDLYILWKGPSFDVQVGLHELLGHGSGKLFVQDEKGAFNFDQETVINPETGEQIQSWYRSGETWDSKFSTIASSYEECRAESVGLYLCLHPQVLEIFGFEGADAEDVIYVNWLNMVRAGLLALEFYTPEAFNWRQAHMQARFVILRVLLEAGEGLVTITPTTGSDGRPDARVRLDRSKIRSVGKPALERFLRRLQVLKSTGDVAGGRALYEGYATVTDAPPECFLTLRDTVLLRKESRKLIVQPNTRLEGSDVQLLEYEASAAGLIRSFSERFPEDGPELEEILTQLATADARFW
In words: hDPP III enzyme activity assay (% inhibition and IC50), substrate Arg-Arg-2-naphthylamide. Format: biochemical. Conditions: for IC50: at least seven concentrations, nonlinear regression, three replicates; for log % inh. exp.: logarithm of % inhibition at 30 μmol L^–1; for inhibition at 30 µM: pH 7.4, 30 μmol L^–1 compound, recombinant hDPP III 0.75 nM, Arg-Arg-2-naphthylamide 40 μM, pH 7.4, 37 °C, average of three determinations ± SD. The protocol: C-terminally truncated human DPP III was expressed and purified as described previously. In brief, C-terminal HIS-tagged recombinant human DPP III was expressed in E. coli BL21-CodonPlus (DE3)-RIL cells, Agilent (Santa Clara, CA, USA). Overexpression was induced by 0.25 mM isopropyl-b-D-1-thiogalactopyranoside (IPTG, Fermentas), and the cells were grown for 20 h at 18 °C and 130 rpm. Obtained bacterial cells were lysed by a combination of lysozyme lysis and sonication, then treated with DNase I and centrifuged at 4000× g for 15 min to precipitate the cell debris. The lysate was purified by affinity chromatography on a Ni-NTA column (5 mL prepacked His-trap FF) GE Healthcare (Chicago, IL, USA) using a buffer system with 50 mM Tris- HCl, pH = 8.0, 300 mM NaCl, and increasing imidazole concentrations: 10 mM for lysis, 20 mM for wash, and 300 mM for elution buffer. All hDPP III active fractions were pooled and incubated with TEV protease to remove the HIS-tag. Human DPP III was recovered using flow-through affinity chromatography (TEV protease is His-tagged), and additionally purified on a 16/60 Superdex-200 gel-filtration column GE Healthcare (Chicago, IL, USA). Fractions with hDPP III were desalted on PD-10 columns GE Healthcare (Chicago, IL, USA). Purified protein in 20 mM Tris-HCl buffer pH = 7.4 was stored at -80 °C until use. Recombinant hDPP III (0.75 nM) was preincubated with benzimidazole derivatives (30 μM) first for 10 min at 25 °C and then for 5 min at 37 °C in 50 mM Tris-HCl buffer, pH 7.4. The enzymatic reaction was started with Arg-[…]-naphthylamide (40 μM) as a substrate, and after the 15 min incubation at 37 °C in a water bath, the reaction was stopped, and the absorbance was measured using the spectrophotometric method described by Abramić et al.. All benzimidazole derivatives were prepared daily in dimethyl sulfoxide, and the resulting stock solutions (4 mM) were transparent, without turbidity or solid residue. […] Before the enzyme assay, stock solutions were diluted with 50 mM Tris-HCl buffer, pH 7.4. […] The percentage of enzyme inhibition under at least seven different concentration gradients was imported into GraphPad Prism 10.4.1 software to calculate IC50 values of the compounds using nonlinear regression analysis from the mean inhibitory value of three replicates. The relative occupancy of inhibition for compounds with the same substituent at position 6 of the benzimidazole core was defined as the sum of their % inh., expressed relative to their maximum achievable inhibition, which was set at 100.

In assay [3] the test system is HCT116. Further details: method as in doi:10.5562/cca3531. Conditions: cited from earlier work.
The subject of assay [4] is MCF-7. More on the design: method as in doi:10.5562/cca3531. The conditions noted are these: cited from earlier work.
Assay [5] has as its system H460. Further details: method as in doi:10.5562/cca3531. The conditions noted are these: cited from earlier work.

Several values for one entry are separate records, joined by “and”; a condition that tells them apart may be missing. Identical values can stand only once. Counter-ions that a name gives are not always drawn. Residues, ends and D or L forms follow the SMILES beside them.

Regarding `N[C@@H](Cc1ccc(O)cc1)C(=O)N[C@@H](Cc1ccccc1)C(=O)NO` [Tyr-Phe-NHOH] (HELM PEPTIDE1{Y.F.[ON[*:1]]}$$$$V2.0), the Ki in assay [1] is 0.15 ± 0.04 µM.

With `CCN(CC)c1ccc(-c2nc3ccc(C(=N)N)cc3[nH]2)c(O)c1` [a2, 5(6)-amidino-2-[4-(N,N-diethylamino)-2-hydroxyphenyl]benzimidazole hydrochloride], in assay [2], the IC50 is < 20 µM and 8.44 µM; the “log % inh. exp.” value is 2.00; the inhibition at 30 µM was not below 90%.

For `N=C(N)c1ccc2nc(-c3ccc(-c4cccs4)s3)[nH]c2c1` [a4], in assay [2], the IC50 was < 20 µM and 8.34 µM; the “log % inh. exp.” value is listed as 2.00; the inhibition at 30 µM is not below 90%.

`N=C(N)c1ccc2nc(-c3ccc(C(F)(F)F)cc3)[nH]c2c1` [a6]: the antiproliferative activity result in assay [3], in assay [4] and in assay [5] was “displayed antiproliferative activity” in each case. Also, the IC50 in assay [2] is < 20 µM and 9.83 µM. Also, the “log % inh. exp.” value in assay [2] was 1.99. Also, the inhibition at 30 µM in assay [2] was not below 90%.

As to `c1ccc2c(c1)cc(-c1nc3cc(C4=NCCN4)ccc3[nH]1)c1ccccc12` [b2, 5(6)-(2-imidazolinyl)-2-(phenanthren-9-yl)-1H-benzo[d]imidazole], in assay [2], the IC50 is < 20 µM and 11.1 µM; the “log % inh. exp.” value is on record as 2.00; the inhibition at 30 µM is not below 90%.

For `c1csc(-c2ccc(-c3nc4ccc(C5=NCCN5)cc4[nH]3)s2)c1` [b4], in assay [2], the IC50 was < 20 µM and 4.98 µM; the “log % inh. exp.” value is given as 2.00; the inhibition at 30 µM was not below 90%.

As for `FC(F)(F)c1ccc(-c2nc3ccc(C4=NCCN4)cc3[nH]2)cc1` [b6], the antiproliferative activity result in assay [3] is “displayed antiproliferative activity”. Also, the antiproliferative activity result in assay [4] is reported as “displayed antiproliferative activity”. In assay [2], the IC50 was < 20 µM and 8.18 µM; the “log % inh. exp.” value was found to be 2.00; the inhibition at 30 µM was not below 90%. Also, in assay [5], the antiproliferative activity result is “displayed antiproliferative activity”.

In the case of `Oc1ccc(-c2nc3ccc(C4=NCCN4)cc3[nH]2)c(O)c1O` [b13, 5(6)-(4,5-Dihydro-1H-imidazol-3-ium-2-yl)-2-(2,3,4-trihydroxyphenyl)benzimidazole chloride], in assay [2], the IC50 is < 20 µM and 1.03 µM; the “log % inh. exp.” value is listed as 2.00; the inhibition at 30 µM is not below 90%.

In the case of `c1ccc2c(c1)cc(-c1nc3cc(C4=NCCCN4)ccc3[nH]1)c1ccccc12` [c8], in assay [2], the “log % inh. exp.” value is recorded as 1.71 and the inhibition at 30 µM was 51.7 ± 0.2%.
